Data reported in paper PMC12775434, “Ultra-large virtual screening unveils potent agonists of the neuromodulatory orphan receptor GPR139” (Nature Communications, 2025).
Several values for one entry are separate records, joined by “and”; a condition that tells them apart may be missing. Identical values can stand only once.

Experiments:
[1] = molecular target: T1, GPR139 (Gq activation) (Homo sapiens, UniProt Q6DWJ6); experiment: BRET G protein activation (dissociation) assay, Gq, HEK293A; format: cell-based; details: for G protein activation, Gq: individual replicates
T1 construct: expressed in transfected cells; host or cells: HEK293A (transient, Lipofectamine 2000)
T1 sequence (Q6DWJ6 1-353): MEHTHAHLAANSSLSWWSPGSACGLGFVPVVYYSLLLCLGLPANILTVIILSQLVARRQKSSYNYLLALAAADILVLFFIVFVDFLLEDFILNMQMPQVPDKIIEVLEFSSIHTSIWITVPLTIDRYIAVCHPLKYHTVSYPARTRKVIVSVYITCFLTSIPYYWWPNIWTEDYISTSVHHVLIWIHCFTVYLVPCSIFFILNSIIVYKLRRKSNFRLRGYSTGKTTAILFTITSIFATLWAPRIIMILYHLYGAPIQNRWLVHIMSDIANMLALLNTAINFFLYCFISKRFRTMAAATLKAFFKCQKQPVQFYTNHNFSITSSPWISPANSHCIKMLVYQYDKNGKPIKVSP
Method: (§1) Primary screening and pharmacological characterization of compounds were performed using a CHO-K1 cell line that stably expresses human GPR139 (GPR139-CHOk1). The GPR139-CHOk1 cell line was kindly provided by H. Lundbeck A/S, Denmark[24]. GPR139-CHOk1 cells were grown in Ham’s F-12 Kaighn’s Modification Medium (ThermoFisher #21127030) supplemented with 10% dialyzed fetal bovine serum (US origin, ThermoFisher #26400044), 100 units/mL Penicillin-Streptomycin (ThermoFisher #15140122), and 1 mg/mL Geneticin (ThermoFisher #11811031). […] M1R-CHOk1 cells were purchased from The Missouri S&T cDNA Resource Center (#CEM100TN00). M1R-CHOk1 cells were grown in Ham’s F12 Medium (ThermoFisher #21765029) supplemented with 10% fetal bovine serum (Brazilian origin, ThermoFisher #10270106), 100 units/mL Penicillin-Streptomycin, and 0.25 mg/mL Geneticin. HEK293A cells transiently transfected with GPR139 were used for additional pharmacological assessment of signaling pathways activated by GPR139. HEK239A cells were generously provided by Dr. Asuka Inoue, Tohoku University, Japan. HEK293A cells were grown in Dulbecco’s Modified Eagle Medium (ThermoFisher #31966047) supplemented with 10% dialyzed fetal bovine serum and 100 units/mL Penicillin-Streptomycin. Cell lines were maintained at 37 °C in humidified incubator equilibrated with 5% CO2.
(§2) The G protein dissociation assay developed by the lab of Kirill A. Martemyanov was used to measure the coupling of multiple G proteins by GPR139[57]. The assay was performed as described previously with minor modifications. HEK293A cells were reverse transfected 20–24 h prior to assay. 50,000 cells were plated in each well of white opaque tissue culture treated 96-well plates (PerkinElmer #6005680) previously coated with poly-D-lysine. Transfection solutions were prepared as described, and 10 µL transfection solution was mixed with 100 µL cells in each well. The cells in each well were transfected with 18.9 ng GPR139, 6.3 ng Venus 1-155 Gγ2, 6.3 ng Venus 159-239 Gβ1, 6.3 ng masGRK3ct-NanoLuc and 12.6 ng Gαi2, 12.6 ng Gαi3, 12.6 ng GαoA, 12.6 ng Gαq or 25.2 ng Gα12 using 375 nL Lipofectamine 2000 Transfection Reagent. Transfections with Gαq and Gα12 contained 6.3 ng DNA of the active subunit S1 of pertussis toxin (PTX-S1). Each transfection was normalized to 150 ng total DNA with pcDNA3.1. The BRET biosensors were a kind gift from the Martemyanov lab. On the day of the experiment the cells were washed with HEPES buffer. Test compounds were diluted in HEPES buffer from DMSO stocks (final DMSO concentration of maximally 0.3%). NanoLuc Luciferase substrate NanoGlo—furimazine (Promega #N1120) was diluted 1000-fold (final) in HEPES buffer. NanoGlo and test compounds were added, and measurements were performed after 10 s for Gi3, 15 s for Gi2 and GoA, 20 s for Gq, and 90 s for G12—the timepoint where maximal signal occurred with each G protein, ensuring proper determination of the potency for the G protein coupling. Simultaneous dual emission was measured at 535 nm and 475 nm on LUMIstar Omega Microplate Reader (BMG Labtech) at room temperature. The BRET ratio of 535 nm/475 nm (Venus/NanoLuc), reflecting the dissociation of the G protein heterotrimer, was used to determine the G protein activation. The basal BRET ratio obtained with buffer condition was subtracted from the absolute BRET ratio at a given test compound concentration, and the responses were normalized to the one obtained with 10 µM JNJ-63533054 for the activation of Gi2.
(§3) Pharmacological data and statistical analyses were performed in GraphPad Prism v9–10 (Graphpad Software Inc., San Diego, CA), which are also specifically described in the figure and table legends. […]

[2] = molecular target: T2, GPR139 (G12 activation) (Homo sapiens, UniProt Q6DWJ6); experiment: BRET G protein activation (dissociation) assay, G12, HEK293A; format: cell-based; details: for G protein activation, G12: individual replicates
T2 construct: expressed in transfected cells; host or cells: HEK293A (transient, Lipofectamine 2000)
T2 sequence (Q6DWJ6 1-353): T1 sequence (Q6DWJ6 1-353)
Method: as §1, §2, §3

[3] = HEK293-A, normalized to JNJ-63533054 (JNJ(S))

Emax [1, 3]: 21 ± 3% | EC50 ([1]; Supplementary Table 6): 2510 nM | Emax [2, 3]: 51 ± 4% | EC50 ([2]; Supplementary Table 6, read-out: pEC50 G12 (converted)): 794 nM
SMILES: Cc1cscc1-c1nc(CC(=O)N[C@H](C)c2ccccc2)no1 [1.1(R)]
G protein activation, Gq ([1]; log [compound] M -4.5): 17 % of JNJ-63533054 at Gi2 (2×) and 25 % of JNJ-63533054 at Gi2 | G protein activation, Gq ([1]; log [compound] M -5.0): 16 % of JNJ-63533054 at Gi2 and 21 % of JNJ-63533054 at Gi2 and 15 % of JNJ-63533054 at Gi2 | G protein activation, Gq ([1]; log [compound] M -5.5): 10 % of JNJ-63533054 at Gi2 and 12 % of JNJ-63533054 at Gi2 (2×) | G protein activation, Gq ([1]; log [compound] M -6.0): 4.28 % of JNJ-63533054 at Gi2 and 5.63 % of JNJ-63533054 at Gi2 and 5 % of JNJ-63533054 at Gi2 | G protein activation, Gq ([1]; log [compound] M -6.5): 0.0563 % of JNJ-63533054 at Gi2 and -0.806 % of JNJ-63533054 at Gi2 and 0.934 % of JNJ-63533054 at Gi2 | G protein activation, Gq ([1]; log [compound] M -7.0): -1.52 % of JNJ-63533054 at Gi2 and -1.69 % of JNJ-63533054 at Gi2 and -0.279 % of JNJ-63533054 at Gi2 | G protein activation, Gq ([1]; log [compound] M -7.5): -0.908 % of JNJ-63533054 at Gi2 and -3 % of JNJ-63533054 at Gi2 and -0.0719 % of JNJ-63533054 at Gi2 | G protein activation, Gq ([1]; log [compound] M -8.0): -5.54 % of JNJ-63533054 at Gi2 and -3 % of JNJ-63533054 at Gi2 and 1.13 % of JNJ-63533054 at Gi2 | G protein activation, G12 ([2]; log [compound] M -4.5): 43 % of JNJ-63533054 at Gi2 and 44 % of JNJ-63533054 at Gi2 and 51 % of JNJ-63533054 at Gi2 | G protein activation, G12 ([2]; log [compound] M -5.0): 42 % of JNJ-63533054 at Gi2 and 36 % of JNJ-63533054 at Gi2 and 51 % of JNJ-63533054 at Gi2 | G protein activation, G12 ([2]; log [compound] M -5.5): 35 % of JNJ-63533054 at Gi2 and 29 % of JNJ-63533054 at Gi2 and 39 % of JNJ-63533054 at Gi2 | G protein activation, G12 ([2]; log [compound] M -6.0): 31 % of JNJ-63533054 at Gi2 and 23 % of JNJ-63533054 at Gi2 and 34 % of JNJ-63533054 at Gi2 | G protein activation, G12 ([2]; log [compound] M -6.5): 19 % of JNJ-63533054 at Gi2 and 12 % of JNJ-63533054 at Gi2 and 22 % of JNJ-63533054 at Gi2 | G protein activation, G12 ([2]; log [compound] M -7.0): 6 % of JNJ-63533054 at Gi2 and 6.57 % of JNJ-63533054 at Gi2 and 15 % of JNJ-63533054 at Gi2 | G protein activation, G12 ([2]; log [compound] M -7.5): 3 % of JNJ-63533054 at Gi2 and 4 % of JNJ-63533054 at Gi2 and 9 % of JNJ-63533054 at Gi2 | G protein activation, G12 ([2]; log [compound] M -8.0): -4.59 % of JNJ-63533054 at Gi2 and 2 % of JNJ-63533054 at Gi2 and 6 % of JNJ-63533054 at Gi2
